Reference: patent US12370463B2, “Continuous-flow, well mixed, microfluidic crystallization device for screening polymorphs, morphologies and crystallization kinetics at controlled supersaturation” (THE BOARD OF TRUSTEES OF THE UNIVERSITY OF ILLINOIS, priority 2019, dated 2025)

Experiments:
Type in all cases: physicochemical
[1] = Polymorph and morphology screening of L-histidine in a batch 96 well plate, single injection
Text: (§1) With eight different microfluidic mixers accommodated on a single chip, eight different supersaturations were studied for polymorph and morphology screening of L-histidine. The results of the continuous flow microfluidic crystallizer were further compared with a batch 96 well plate system with single injection of the solutions in a 96 well plate system. Supersaturation adjustments were done by either changing the initial concentration of the API solution and maintaining a constant ratio for the solvent and antisolvent (1:1) or varying the ratios of two mixing streams for constant initial concentration of API in the solvent. Ratios of solvent and antisolvent were controlled by controlling the flowrates of each stream, respectively.
A low supersaturation degree existed in the wells D, C, and H, where supersaturation was respectively 1.74, 1.14 and 1.15. For a medium range of the supersaturations, well B with S=2.28 and well G with S=2 were evaluated. The other three remaining wells, A, E and F represents the high supersaturation range with S=2.57, […], 3.14 respectively. Identical supersaturations for wells A to H were applied to a batch 96 well plate and optical images were collected after 5 and 30 minutes and shown in the micrographs A2 to H2 and A4 to H4.
In order to measure the growth rate for polymorphs of L-histidine at different supersaturations, time-lapsed images of each sample were taken each 60, 120 or 300 seconds after the crystals were first observed within the crystallization zone. […] To confirm the crystal faces, the crystallography of the polymorph B was imported into WINXMORPH and 3 final models were simulated for existing form B in the samples. The growth rate measurements of the form A crystals, however was done by measuring the distance between the two longest faces due to the significant aspect ratio of the two dominant faces of this crystal form. Using MATLAB (MATLAB 9.3, The MathWorks Inc.) the ratio of the polymorphic form A was measured for the eight samples in both continuous flow crystallizer as well as the batch 96 well plate system. […]

[2] = Polymorph and morphology screening of L-histidine by antisolvent crystallization in the continuous-flow multi-well microfluidic mixer; conditions: for polymorphic form obtained: water solvent, ethanol antisolvent, room temperature
Experimental: The L-histidine crystals were formed at room temperature with water as the solvent and ethanol as the antisolvent, wherein the microfluidic system was configured to have a cyclone-shaped geometry.
The multi-well microfluidic mixer device was placed on a temperature-controlled stage of the optical microscope (Olympus BX53M, Olympus America Inc.). A saturated solution of L-histidine in water was prepared for the solubility measurement experiment at room temperature.
Eight different syringes were filled with solutions of L-histidine in the water at known concentrations as the source of solvent streams and the other eight syringes were filled with ethanol as antisolvent streams. Syringes were then inserted into 4 programmed syringe pumps (NE-4000, New Era Pump System Inc.). Inlets were connected to one-way microfluidic check valves to prevent backflow inside the channels.
All the microscopic images were recorded with a built-in color camera (LC 30, Olympus America Inc.) using reflected light mode. Capturing time-lapsed images and the growth rate analysis was performed for different samples. Further, these images were processed through MATLAB (MATLAB 9.3, The MathWorks Inc.) for form percentage measurements. L-histidine has two polymorphic form with different crystal habits reported in the literature.
After benchmarking the merged inlet geometry and observing the consistency between the two discussed geometry, the multiwell screening system 10 generally shown in FIG. 4 and using the eight microfluidic chambers 100 having the merged inlet geometry of FIG. 5 was used to perform a parallel screening of L-histidine.
as §1
L-histidine with the two polymorphic forms of form A (stable) and form B (metastable) was selected for the parallel screening. The disclosed microfluidic system provides for the instantaneous, in-situ analysis of the polymorphic change. The studied supersaturations were divided into three regions of low, medium and high supersaturations to understand the effect of the supersaturation ratio on the polymorphic form ratios. […]

[3] = Antisolvent crystallization of o-ABA in the microfluidic mixer, merged and separated inlet designs
Text: The crystals were formed at room temperature using ethanol as solvent and water as antisolvent. The microfluidic system was configured to have a cyclone-shaped geometry.
The microfluidic device was placed on the temperature-controlled stage of the optical microscope (Olympus BX53M, Olympus America Inc.). The o-ABA dissolved in ethanol and pure water was pumped separately into the microfluidic device using programmed syringe pumps (NE-4000, New Era Pump System Inc.). The flow rates of the o-ABA-ethanol solution and pure water were adjusted to achieve the desired supersaturations (S=1.2, 1.9, and 2.5), which were determined using the solubility curve of form I of o-ABA crystals. The inlets of the microfluidic device were connected with one-way check valves to avoid backflow from the mixer. The time-lapse images of the crystallization compartment were recorded using a built-in color camera (LC 30, Olympus America Inc.) of the optical microscope under the reflected light mode, which are also processed using MATLAB (MATLAB 9.3, The MathWorks Inc.) to measure growth rates and particle size distribution. The polymorphs of o-ABA at different supersaturations (S=1.2, 1.9, and 2.5) were identified using (i) distinct morphological features, such as form I having a prismatic morphology whereas form II has a needle-like morphology, and (ii) X-ray diffraction (XRD) experiments on a Bruker DISCOVER diffractometer with Cu Kα radiation.
The antisolvent crystallization of o-ABA was studied with a merged inlet design (FIG. 5) and results were compared with a separated inlet design. FIG. 11, panels A-H show the micrographs of the samples obtained from antisolvent crystallization of o-ABA in the ethanol-water mixture at two different supersaturations (S=1.2 and S=1.9). The relative relationship between the form and morphology of o-ABA allows for instant detection of each polymorph with the in-situ analysis.

crystal size distribution ([1]; batch 96 well plate) | polymorphic form obtained ([1]; high supersaturation, batch 96 well plate) | growth rates of crystals over the time of the measurements ([1]; identical samples in the batch system) | growth rates of crystals at similar supersaturation ([2]; continuous microfluidic mixer, time-lapsed images) | polymorphic form obtained ([2]; supersaturations below 2.3 (low and medium ranges)) | polymorphic form obtained ([2]; supersaturations higher than 2.3) | Compound | crystal size distribution ([2]; continuous microfluidic mixer) | polymorphic form obtained ([3]; S=1.9, merged inlets geometry) | polymorphic transformation during the experiment ([3]; S=1.9, merged inlets geometry, constant supersaturation) | polymorphic form obtained ([3]; lower supersaturations, ethanol-water mixture)
wide range of size distribution | a mixture of both polymorphic forms | decrease significantly | almost constant | a mixture of forms A and B | only crystallizes in form B | N[C@@H](Cc1c[nH]cn1)C(=O)O [L-histidine] | more uniform and have a narrower size distribution | – | – | –
– | – | – | – | – | – | Nc1ccccc1C(=O)O [o-ABA, o-aminobenzoic acid] | – | metastable form II was obtained | did not transform to the stable form | crystals of polymorphic form I are obtained
